Source: PubChem BioAssay (NCI)
Several values for one entry are separate records, joined by “and”; a condition that tells them apart may be missing. Equal values may be shown once.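 These data come from cells grown in 96-well plates and exposed to compound for 48 hours at five concentrations. The concentration for 50% growth inhibition is given as GI50. The concentration for full growth arrest is given as TGI.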 Where a SMILES comes first, the peptide text is derived from it. [ ]: non-standard residue; d: D form. The star is where a group is joined. ξ: configuration not given here. dIva = CC[C@@](C)(N)C(=O)O; Aib = CC(C)(N)C(=O)O; ξP = O=C(O)C1CCCN1; βAla = NCCC(=O)O; X5 = OCN*

Tested on: MDA-MB-468 breast
Assay: growth of human tumour cells (NCI), 48 h

## COc1ccccc1/C=C/C=N/NC1=NC2C(S1)N(C)C(=O)N2c1ccccc1 (centres undefined)
  GI50: 0.428 µM
  TGI: 31 µM

## CC1(C)N=C(N)N=C(N)N1c1ccc(CCC(=O)Nc2cccc(S(=O)(=O)F)c2)cc1
  GI50: 1.31 µM
  TGI: > 100 µM

## NC(N)=N/N=C/c1ccc(Br)cc1
  GI50: 1.5 µM
  TGI: 4.81 µM

## COc1ccc(-c2c(C#N)cnc(N)c2-c2nc3cc(C)c(C)cc3[nH]2)cc1
  GI50: 6.22 µM
  TGI: 23.1 µM

## NC(N)=NC(N)=NCc1ccco1
  GI50: 158 µM and 36.8 µM
  TGI: 500 µM

## O=C1C=C(OCC=C(Cl)Cl)C(=O)c2ccccc21
  GI50: 1.05 µM
  TGI: 3.6 µM

## COC(=O)CCc1c(/C=C2\N=C(c3ccc[nH]3)C=C2OC)[nH]c(C)c1C(=O)OCc1ccccc1
  GI50: 0.842 µM
  TGI: 4.4 µM

## CC[C@@](C)(NC(=O)[C@H](C)NC(=O)CCNC(=O)C(C)(C)NC(=O)[C@H](C)NC(=O)[C@@H]1CCCN1C(=O)[C@@](C)(CC)NC(=O)[C@H](Cc1ccccc1)NC(=O)C1CCCN1C(=O)C(C)(C)NC(=O)C1CCCN1C(=O)C(C)(C)NC(C)=O)C(=O)NCCC(=O)N[C@@H](CC(C)C)C(=O)NC(C)(C)C(=O)NCCC(=O)N[C@@H](CC(C)C)C(=O)NC(C)(C)C(=O)NC(C)(C)C(=O)N[C@@H](CC(C)C)C(=O)NCCC(=O)NCO (some centres undefined) (Ac-[Aib][ξP][Aib][ξP]F[dIva]PA[Aib][βAla]A[dIva][βAla]L[Aib][βAla]L[Aib][Aib]L[βAla]-X5)
  GI50: 0.0528 µM
  TGI: 0.163 µM

## CC(CNc1nc(Nc2ccc(Cl)c(Cl)c2)nc(C(Cl)(Cl)Cl)n1)N(C)C (centres undefined)
  GI50: 1.47 µM
  TGI: 2.85 µM

## COc1cc(OC)c2c(c1Cl)O[C@]1(C2=O)C(OCc2ccccc2)=CC(=O)C[C@H]1C
  GI50: 0.741 µM
  TGI: 47.5 µM

## CN1C(=O)C(C)(C)Oc2c(-c3cn(C)c(=O)c4[nH]ccc34)cc(S(C)(=O)=O)cc21
  GI50: 0.551 µM
  TGI: 3.7 µM

## COc1cc[nH]c1/C=C1\C(=O)Nc2ccc([N+](=O)[O-])c(N3CC[C@@H](O)C3)c21
  GI50: 0.352 µM
  TGI: 0.995 µM

## COC(=O)[C@]1(C)CC[C@]2(C)CC[C@]3(C)C(=CC(=O)[C@@H]4[C@@]5(C)CCC(=O)NC(C)(C)[C@@H]5CC[C@]43C)[C@@H]2C1
  GI50: 18.3 µM
  TGI: 64.2 µM

## CC(=O)N1c2ccc(-c3ccc(C(=O)O)cc3)cc2[C@H](Nc2ccc(Cl)cc2)C[C@@H]1C
  GI50: 0.131 µM
  TGI: 17.3 µM

## Nc1nc(N)c(-c2ccc(Cl)cc2)c(/C=C/c2ccc([N+](=O)[O-])cc2)n1
  GI50: 3.02 µM
  TGI: > 100 µM

## C[C@H](c1ccc(Cl)cc1[N+](=O)[O-])N1C(=O)c2cc(I)ccc2NC(=O)[C@H]1c1ccc(Cl)cc1
  GI50: 16.6 µM
  TGI: > 100 µM

## CNCC1CCn2c(c(C3=C(c4cn(C)c5ccccc45)C(=O)NC3=O)c3ccccc32)C1 (centres undefined)
  GI50: 2.62 µM
  TGI: 6.58 µM
